Measurements reported in patent publication US9018206B2, “Carboxamide compounds and their use as calpain inhibitors” (AbbVie Deutschland GmbH & Co. KG, priority 2009, dated 2015).

How the values were obtained:
Assay type in all cases: biochemical
[1] = target: T1, cathepsin B isolated from human liver (Homo sapiens, UniProt P07858); experiment: Cathepsin B enzyme inhibition in vitro (kinetic fluorescence assay); conditions: Ki(cathepsin B)/Ki(calpain) ratio
T1 construct: cathepsin B—isolated from human liver; purchased Calbiochem 219362; host or cells: human liver (tissue-derived)
How it was run: (§1)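 Kinetic AMC fluorescence (ex 390/em 460 nm), room temperature. Calpain-I 20 nM, 100 μM Suc-Leu-Tyr-AMC, imidazole/CaCl2 pH 7.3; cathepsins B 0.25 nM/100 μM Z-Phe-Arg-AMC, K 3 nM/10 μM Z-Gly-Pro-Arg-AMC, S 0.5 nM/20 μM Z-Val-Val-Arg-AMC, each MES/EDTA/cysteine pH 6.0. Ki from IC50 via Cheng-Prusoff, averaging 2–4 curves.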

[2] = target: T2, cathepsin L isolated from human liver (Homo sapiens, UniProt P07711); experiment: Cathepsin L enzyme inhibition in vitro (kinetic fluorescence assay); conditions: Ki(cathepsin L)/Ki(calpain) ratio
T2 construct: cathepsin L—isolated from human liver; purchased Calbiochem 219402; host or cells: human liver (tissue-derived)
Procedure: Testing for blockade of the corresponding enzymic activities was carried out by means of kinetic fluorescence assays (excitation 390 nm, emission 460 nm).
Apparent Ki values were calculated from the experimentally determined IC50 values by the Cheng-Prussoff relation assuming a reversible competitive enzyme inhibition. The Km values of the substrates used under the assay conditions indicated above were: 90 μM (Z-Phe-Arg-AMC, cathepsin B), 10 μM (Z-Gly-Pro-Arg-AMC, cathepsin K), 2 μM (Z-Phe-Arg-AMC, cathepsin L), and 30 μM (Z-Val-Val-Arg-AMC, cathepsin S).
The indicated Ki values are averages of the inhibition constants calculated on the basis of 2 to 4 independent dose-effect plots.
• 20 nM calpain-I—isolated from human erythrocytes (Calbiochem #208713), 100 μM Suc-Leu-Tyr-AMC (Bachem #I-1355) as substrate in buffer with 62 mM imidazole, 0.3 mM CaCl2, 0.10% CHAPS, 0.05% BSA, 1 mM DTT at pH 7.3 and room temperature. 1. Cathepsin B: • 0.25 nM cathepsin B—isolated from human liver (Calbiochem #219362), 100 μM Z-Phe-Arg-AMC (Bachem #I-1160) as substrate 50 mM MES, 2 mM EDTA, 0.05% Brij 35, 2.5 mM L-cysteine, pH 6.0, room temperature. 3. Cathepsin K: • 3 nM cathepsin K activated from recombinant human procathepsin K from E. coli (Calbiochem #342001), 10 μM Z-Gly-Pro-Arg-AMC (Biomol #P-142) as substrate in 50 mM MES, 2 mM EDTA, 0.05% Brij 35, 2.5 mM L-cysteine, pH 6.0, room temperature. 4. Cathepsin L: • 1 nM cathepsin L—isolated from human liver (Calbiochem #219402), 2 μM Z-Phe-Arg-AMC (Bachem #I-1160) as substrate in 50 mM MES, 2 mM EDTA, 0.05% Brij 35, 2.5 mM L-cysteine, pH 6.0, room temperature. 5. Cathepsin S: • 0.5 nM recombinant human cathepsin S from E. coli (Calbiochem #219343), 20 μM Z-Val-Val-Arg-AMC (Bachem #I-1540) as substrate in 50 mM MES, 2 mM EDTA, 0.05% Brij 35, 2.5 mM L-cysteine, pH 6.0, room temperature.

[3] = target: T3, cathepsin K activated from recombinant human procathepsin K (Homo sapiens, UniProt P43235); experiment: Cathepsin K enzyme inhibition in vitro (kinetic fluorescence assay); conditions: Ki(cathepsin K)/Ki(calpain) ratio
T3 construct: purchased Calbiochem 342001; host or cells: E. coli
T3 sequence (P43235 115-329): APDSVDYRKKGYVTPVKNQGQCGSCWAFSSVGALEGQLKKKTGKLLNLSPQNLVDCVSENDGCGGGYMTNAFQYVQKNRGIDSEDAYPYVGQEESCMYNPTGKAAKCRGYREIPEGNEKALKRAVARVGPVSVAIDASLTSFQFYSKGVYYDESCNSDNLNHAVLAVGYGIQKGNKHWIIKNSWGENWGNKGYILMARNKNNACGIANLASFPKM
How it was run: as §1

[4] = target: T4, recombinant human cathepsin S (Homo sapiens, UniProt P25774); experiment: Cathepsin S enzyme inhibition in vitro (kinetic fluorescence assay); conditions: Ki(cathepsin S)/Ki(calpain) ratio
T4 construct: purchased Calbiochem 219343; host or cells: E. coli
How it was run: as §1

[5] = target: T5, calpain-I isolated from human erythrocytes (Homo sapiens, UniProt P07384); experiment: Calpain I enzyme inhibition in vitro (kinetic fluorescence assay); conditions: apparent Ki from IC50 (Cheng-Prussoff); 20 nM calpain-I, 100 μM Suc-Leu-Tyr-AMC, pH 7.3, room temperature
T5 construct: calpain-I—isolated from human erythrocytes; purchased Calbiochem 208713; host or cells: human erythrocytes (tissue-derived)
T5 sequence (P07384 1-714): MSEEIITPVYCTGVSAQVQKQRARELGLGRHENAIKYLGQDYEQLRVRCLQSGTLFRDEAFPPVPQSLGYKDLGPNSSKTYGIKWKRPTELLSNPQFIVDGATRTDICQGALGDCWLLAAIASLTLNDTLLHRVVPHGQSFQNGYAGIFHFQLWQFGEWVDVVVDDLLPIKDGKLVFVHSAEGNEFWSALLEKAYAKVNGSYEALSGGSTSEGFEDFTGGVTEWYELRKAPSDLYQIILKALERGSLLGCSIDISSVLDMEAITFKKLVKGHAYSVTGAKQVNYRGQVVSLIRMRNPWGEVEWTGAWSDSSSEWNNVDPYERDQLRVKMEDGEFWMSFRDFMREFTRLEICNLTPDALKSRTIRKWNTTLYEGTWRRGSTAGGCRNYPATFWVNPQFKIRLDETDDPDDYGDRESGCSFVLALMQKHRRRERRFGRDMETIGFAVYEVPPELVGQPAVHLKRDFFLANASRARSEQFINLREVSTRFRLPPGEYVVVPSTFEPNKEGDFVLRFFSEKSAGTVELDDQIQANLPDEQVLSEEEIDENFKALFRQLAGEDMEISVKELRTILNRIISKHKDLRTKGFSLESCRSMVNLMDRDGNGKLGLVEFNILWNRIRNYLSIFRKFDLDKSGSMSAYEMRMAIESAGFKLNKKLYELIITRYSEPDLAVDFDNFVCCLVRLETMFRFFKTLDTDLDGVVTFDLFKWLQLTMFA
T5 sequence (P04632 1-268 partner): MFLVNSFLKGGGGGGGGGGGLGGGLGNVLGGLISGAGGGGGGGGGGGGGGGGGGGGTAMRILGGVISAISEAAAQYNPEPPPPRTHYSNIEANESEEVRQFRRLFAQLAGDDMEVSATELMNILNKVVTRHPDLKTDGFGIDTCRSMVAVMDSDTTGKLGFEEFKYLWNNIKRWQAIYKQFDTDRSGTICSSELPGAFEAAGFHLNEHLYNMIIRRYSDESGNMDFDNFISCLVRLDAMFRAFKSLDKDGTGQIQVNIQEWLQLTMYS
How it was run: as §1

T2 sequence (P07711 114-333): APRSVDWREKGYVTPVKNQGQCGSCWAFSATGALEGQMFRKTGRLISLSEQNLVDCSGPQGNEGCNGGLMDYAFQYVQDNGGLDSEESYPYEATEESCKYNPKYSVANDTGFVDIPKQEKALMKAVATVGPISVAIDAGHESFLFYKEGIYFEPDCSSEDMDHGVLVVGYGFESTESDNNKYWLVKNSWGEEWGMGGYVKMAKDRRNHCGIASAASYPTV
T4 sequence (P25774 115-331): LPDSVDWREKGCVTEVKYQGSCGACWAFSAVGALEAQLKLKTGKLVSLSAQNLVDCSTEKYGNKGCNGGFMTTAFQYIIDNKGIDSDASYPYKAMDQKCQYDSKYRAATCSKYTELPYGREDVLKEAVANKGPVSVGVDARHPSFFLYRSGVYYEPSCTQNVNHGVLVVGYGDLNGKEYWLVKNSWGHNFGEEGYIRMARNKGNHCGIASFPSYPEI

Sel cat. B [1] | Sel cat. L [2] | Ki [5] [nM] | Compound | Sel cat. K [3] | Sel cat. S [4]
++ (10<Ki(cathepsin B)/Ki(calpain)≦30) | ++ (10<Ki(cathepsin B)/Ki(calpain)≦30) | 100 to 600 | O=C(NCc1ncco1)C(=O)C(Cc1ccccc1)NC(=O)[C@H]1CCC(=O)N1Cc1ccccc1 (stereo partly drawn) [Example 64, (2R)-1-Benzyl-N-(4-(oxazol-2-ylmethylamino)-3,4-dioxo-1-phenylbutan-2-yl)-5-oxopyrrolidine-2-carboxamide] | +++ (Ki(cathepsin K)/Ki(calpain) ratio of >30) | +++ (Ki(cathepsin S)/Ki(calpain) ratio of >100)
++ (10<Ki(cathepsin B)/Ki(calpain)≦30) | ++ (10<Ki(cathepsin B)/Ki(calpain)≦30) | 50 to 100 | NC(=O)C(=O)C(Cc1ccccc1)NC(=O)[C@H]1CCC(=O)N1Cc1ccc(F)cc1 (stereo partly drawn) [Example 5, (2R)—N-(4-Amino-3,4-dioxo-1-phenylbutan-2-yl)-1-(4-fluorobenzyl)-5-oxopyrrolidine-2-carboxamide] | ++ (10<Ki(cathepsin B)/Ki(calpain)≦30) | ++ (30<Ki(cathepsin B)/Ki(calpain)≦100)
++ (10<Ki(cathepsin B)/Ki(calpain)≦30) | ++ (10<Ki(cathepsin B)/Ki(calpain)≦30) | 50 to 100 | NC(=O)C(=O)C(Cc1ccccc1)NC(=O)[C@H]1CCC(=O)N1Cc1c(F)cccc1F (stereo partly drawn) [Example 51, (2R)—N-(4-Amino-3,4-dioxo-1-phenylbutan-2-yl)-5-oxo-1-(2,6-difluorobenzyl)-pyrrolidine-2-carboxamide] | +++ (Ki(cathepsin K)/Ki(calpain) ratio of >30) | +++ (Ki(cathepsin S)/Ki(calpain) ratio of >100)
++ (10<Ki(cathepsin B)/Ki(calpain)≦30) | ++ (10<Ki(cathepsin B)/Ki(calpain)≦30) | < 50 | NC(=O)C(=O)C(Cc1ccccc1)NC(=O)[C@H]1CCC(=O)N1Cc1ccccc1 (mixture of isomers) [Example 1, (2R)—N-(4-Amino-3,4-dioxo-1-phenylbutan-2-yl)-1-benzyl-5-oxopyrrolidine-2-carboxamide] | ++ (10<Ki(cathepsin B)/Ki(calpain)≦30) | +++ (Ki(cathepsin S)/Ki(calpain) ratio of >100)

Compound | Sel cat. B [1] | Sel cat. L [2] | Ki [5] [nM] | Sel cat. K [3] | Sel cat. S [4]
NC(=O)C(=O)C(Cc1ccccc1)NC(=O)[C@H]1CCC(=O)N1Cc1cccc(F)c1 (stereo partly drawn) [Example 8, (2R)—N-(4-Amino-3,4-dioxo-1-phenylbutan-2-yl)-1-(3-fluorobenzyl)-5-oxopyrrolidine-2-carboxamide] | +++ (Ki(cathepsin B)/Ki(calpain) ratio of >30) | ++ (10<Ki(cathepsin B)/Ki(calpain)≦30) | 50 to 100 | ++ (10<Ki(cathepsin B)/Ki(calpain)≦30) | +++ (Ki(cathepsin S)/Ki(calpain) ratio of >100)
O=C(Nc1ccccc1)C(=O)C(Cc1ccccc1)NC(=O)[C@H]1CCC(=O)N1Cc1ccccc1 (mixture of isomers) [Example 65, (2R)-1-Benzyl-N-(3,4-dioxo-1-phenyl-4-(phenylamino)butan-2-yl)-5-oxopyrrolidine-2-carboxamide] | +++ (Ki(cathepsin B)/Ki(calpain) ratio of >30) | +++ (Ki(cathepsin L)/Ki(calpain) ratio of >30) | 50 to 100 | +++ (Ki(cathepsin K)/Ki(calpain) ratio of >30) | +++ (Ki(cathepsin S)/Ki(calpain) ratio of >100)
O=C(NC1CC1)C(=O)C(Cc1ccccc1)NC(=O)[C@H]1CCC(=O)N1Cc1c(Cl)cccc1Cl (mixture of isomers) [Example 61, (2R)—N-(4-(Cyclopropylamino)-3,4-dioxo-1-phenylbutan-2-yl)-1-(2,6-dichlorobenzyl)-5-oxopyrrolidine-2-carboxamide] | + (5<Ki(cathepsin B)/Ki(calpain)≦10) | +++ (Ki(cathepsin L)/Ki(calpain) ratio of >30) | 100 to 600 | +++ (Ki(cathepsin K)/Ki(calpain) ratio of >30) | +++ (Ki(cathepsin S)/Ki(calpain) ratio of >100)
O=C(NCc1cccs1)C(=O)C(Cc1ccccc1)NC(=O)[C@H]1CCC(=O)N1Cc1ccccc1 (mixture of isomers) [Example 60, (2R)-1-Benzyl-N-(3,4-dioxo-1-phenyl-4-(thiophen-2-ylmethylamino)butan-2-yl)-5-oxopyrrolidine-2-carboxamide] | +++ (Ki(cathepsin B)/Ki(calpain) ratio of >30) | ++ (10<Ki(cathepsin B)/Ki(calpain)≦30) | 50 to 100 | +++ (Ki(cathepsin K)/Ki(calpain) ratio of >30) | +++ (Ki(cathepsin S)/Ki(calpain) ratio of >100)
O=C(NCc1ccncc1)C(=O)C(Cc1ccccc1)NC(=O)[C@H]1CCC(=O)N1Cc1ccccc1 (mixture of isomers) [Example 63, (2R)-1-Benzyl-N-(3,4-dioxo-1-phenyl-4-(pyridin-4-ylmethylamino)butan-2-yl)-5-oxopyrrolidine-2-carboxamide] | +++ (Ki(cathepsin B)/Ki(calpain) ratio of >30) | +++ (Ki(cathepsin L)/Ki(calpain) ratio of >30) | 50 to 100 | +++ (Ki(cathepsin K)/Ki(calpain) ratio of >30) | +++ (Ki(cathepsin S)/Ki(calpain) ratio of >100)
